Assays:
[1] = tested on: KPC1361 cells; test: MHC-I surface expression in Pikfyve-wildtype, Pikfyve-null, Atg5-null or Atg7-null cells; assay type: cell-based, mouse; settings: Pikfyve-wildtype cells, autophagy inhibition
Excerpt: FIG. 1F (Left) is line graphs of flow cytometry measuring MHC-I surface expression in KPC1361 cells with or without Pikfyve KO, treated with DMSO, Bafilomycin, chloroquine, Apilimod, or ESK981; (Right) is bar graphs of quantification of flow cytometry measuring MHC-I surface expression in KPC1361 cells with or without Pikfyve KO, treated with DMSO, Bafilomycin, chloroquine, Apilimod, or ESK981.
FIG. 1G (Left) is a line graph of flow cytometry measuring MHC-I surface expression in KPC1361 cells with non-targeting single-guide RNA (control), or single-guide RNAs depleting Atg5 or Atg7, treated with DMSO or Apilimod; (Right) is a bar graph of quantification of flow cytometry measuring MHC-I surface expression in KPC1361 cells with non-targeting single-guide RNA (control), or single-guide RNAs depleting Atg5 or Atg7, treated with DMSO or Apilimod.
Cancer cells or the OVA-expressing cancer cells treated in vitro were harvested from dishes, resuspended in buffer MACS (PBS containing 2% FBS and 2 mM EDTA), and stained with Zombie NIR™ Fixable Viability kit (BioLegend: #423106) and fluorophore-conjugated antibody against MHC-I or PE-conjugated antibody against SIINFEKL bound H-2Kb (BioLegend; catalog #141604), respectively. The cells were next washed twice with 1 ml MACS and fixed with 2% paraformaldehyde in PBS for 15 minutes at room temperature. The cells were then subjected to the flow cytometer (SONY SH800S) for measuring surface expression of MHC-I or SIINFEKL bound H-2Kb, respectively. Antibodies used in this study include anti-H-2Kb (BD Biosciences; catalog #553570) and anti-H-2Db (28-14-8; Thermo Fisher Scientific; catalog #12-5999-82) for KPC1361 and B16-F10, anti-H-2Kd (BD Biosciences; catalog #562004) and anti-H-2Dd (BD Biosciences; catalog #553580) for 4T1, anti-H-2Kq (BD Biosciences; catalog #742296) and anti-H-2Dq/H-2Lq (BD Biosciences; catalog #744853) for MyC-CaP, and anti-HLA-A,B,C (clone w6/32; BioLegend; catalog #311406) for human cancer cells.

[2] = tested on: B16F10-OVA tumors; test: B16F10-OVA tumor model with PolyI:C adjuvant; assay type: in vivo, mice; settings: treatment after inoculation, each agent alone
Method: FIG. 16F is a series of four line graphs of the Individual growth curves of subcutaneous B16F10-OVA tumor volume following 21 days of pre-treatment with vehicle versus apilimod, 30 mg/kg daily, with or without subcutaneous injection of water versus PolyI:C, 100 μg on Day 1 and Day 14.
FIG. 16H is a series of four line graphs of the Individual growth curves of subcutaneous B16F10-OVA tumor volume in mice treated with vehicle or apilimod, 30 mg/kg daily, with or without a subcutaneous injection of water versus PolyI:C, 100 μg once weekly.
FIG. 26I is a line graph of the subcutaneous tumor volume of B16F10-OVA tumors following 21 days of pre-treatment with vehicle versus apilimod, 30 mg/kg×5 days/week, with or without subcutaneous injection of water versus PolyI:C, 100 μg on Day 1 and Day 14.
FIG. 26J is a line graph of the subcutaneous tumor volume of B16F10-OVA tumors in mice treated with vehicle or apilimod, 30 mg/kg×5 days/week, with or without subcutaneous injection of water versus PolyI:C, 100 μg once weekly.

[3] = tested on: cDCs; test: Phenotype of cultured cDCs (flow cytometry, western blot); assay type: cell-based, mice; settings: DCs in vitro, each agent
Method: FIG. 13G (Left) is a line graph of the relative median fluorescent intensity of the surface MHC-I on DMSO or apilimod-treated cDCs treated for 20 hours after 6 days of culture. FIG. 13G (Right) is a box and whisker plot of the surface MHC-I on DMSO or apilimod-treated cDCs treated for 20 hours after 6 days of culture
FIG. 13H a western blot showing the total vinculin, loading control, and total MHC-I in DMSO or apilimod-treated, 20 hours, cDC lysates after 6 days of culture.
FIG. 13K (Left) is a line graph of the relative median fluorescent intensity of the surface MHC-II on DMSO or apilimod-treated, 20 hours, cDCs treated after 6 days of culture. FIG. 13K (Right) is a box and whisker plot of the surface MHC-II on DMSO or apilimod-treated, 20 hours, cDCs treated after 6 days of culture.
FIG. 13L a western blot showing the total vinculin, loading control, and total MHC-II in DMSO or apilimod-treated, 20 hours, cDC lysates after 6 days of culture.
FIG. 13N a western blot showing the total histone H3, loading control, and total CD80 and CD86 in apilimod-treated, 20 hours, PIKfyve WT vs. KO cDC lysates after 6 days of culture.
FIG. 13P is a series of six scatter plots of surface CD80 and CD86 on DMSO or apilimod-treated cDCs, with or without 20 hours of PolyI:C, 50 μg/ml, or lipopolysaccharide (LPS), 50 ng/ml, treatment after 6 days of culture.
FIG. 13R a western blot showing the total vinculin, loading control, and total CD40 in DMSO or apilimod-treated, 20 hours, cDC lysates treated with or without additional LPS, 50 ng/ml, after 6 days of culture day 6.
FIG. 19B is a line graph of representative density plot of median fluorescent intensity of surface XCR1 in DMSO or apilimod-treated, 20 hours, cDCs after 6 days of culture.
FIG. 26G is a line graph of the relative median fluorescent intensity of the surface MHC-I, H2-kb, H2-kd, on DMSO or apilimod-treated cDCs with or without PolyI:C, 50 μg/ml or LPS, 50 ng/ml, treatment, 20 hours, after 6 days of culture.
FIG. 26H is a line graph of the relative median fluorescent intensity of the surface MHC-II, MHC-IA-IE, on DMSO or apilimod-treated cDCs with or without PolyI:C, 50 μg/ml or LPS, 50 ng/ml, treatment, 20 hours, after 6 days of culture.

Row | Compound | MHC-I surface expression [1] | tumor growth [2] | MHC-I and MHC-II expression [3]
1 | CCN(CC)CCCC(C)Nc1ccnc2cc(Cl)ccc12 (centres unmarked) [chloroquine] | induced | – | –
2 | PolyI:C | – | modest tumor growth inhibition | stimulated
3 | bafilomycin | induced | – | –
4 | lipopolysaccharide [LPS] | – | – | stimulated

Reference: patent US20250144107A1, “USE OF A PIKFYVE INHIBITOR IN COMBINATION WITH IMMUNOTHERAPY” (The Regents of the University of Michigan, priority 2023, published 2025)
